# Data published in patent US20020132853A1, “Capsaicin receptor ligands” (priority 2000, published 2002).
# Biological target: T1, human capsaicin receptor (Homo sapiens, UniProt Q8NER1)
# T1 construct: expression consrtuct encoding the full length human capsaicin receptor; expressed in transfected cells
# Assay: Antagonist assay for Capsaicin receptor mediated calcium mobilization
# Type: cell-based
# Settings: Table V, read-out: EC50 (the source's name)
# In short: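 Cells expressing human capsaicin receptor, loaded with Fluo-3 AM, were preincubated 0.5–6 h at room temperature in the dark with test compound at 1–5 μM final in KRH buffer (pH 7.4, 2 mM CaCl2, probenecid). Capsaicin at its EC50 was then added via FLIPR; IC50 is the antagonist concentration halving the calcium signal.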
# T1 sequence (Q8NER1 whole entry): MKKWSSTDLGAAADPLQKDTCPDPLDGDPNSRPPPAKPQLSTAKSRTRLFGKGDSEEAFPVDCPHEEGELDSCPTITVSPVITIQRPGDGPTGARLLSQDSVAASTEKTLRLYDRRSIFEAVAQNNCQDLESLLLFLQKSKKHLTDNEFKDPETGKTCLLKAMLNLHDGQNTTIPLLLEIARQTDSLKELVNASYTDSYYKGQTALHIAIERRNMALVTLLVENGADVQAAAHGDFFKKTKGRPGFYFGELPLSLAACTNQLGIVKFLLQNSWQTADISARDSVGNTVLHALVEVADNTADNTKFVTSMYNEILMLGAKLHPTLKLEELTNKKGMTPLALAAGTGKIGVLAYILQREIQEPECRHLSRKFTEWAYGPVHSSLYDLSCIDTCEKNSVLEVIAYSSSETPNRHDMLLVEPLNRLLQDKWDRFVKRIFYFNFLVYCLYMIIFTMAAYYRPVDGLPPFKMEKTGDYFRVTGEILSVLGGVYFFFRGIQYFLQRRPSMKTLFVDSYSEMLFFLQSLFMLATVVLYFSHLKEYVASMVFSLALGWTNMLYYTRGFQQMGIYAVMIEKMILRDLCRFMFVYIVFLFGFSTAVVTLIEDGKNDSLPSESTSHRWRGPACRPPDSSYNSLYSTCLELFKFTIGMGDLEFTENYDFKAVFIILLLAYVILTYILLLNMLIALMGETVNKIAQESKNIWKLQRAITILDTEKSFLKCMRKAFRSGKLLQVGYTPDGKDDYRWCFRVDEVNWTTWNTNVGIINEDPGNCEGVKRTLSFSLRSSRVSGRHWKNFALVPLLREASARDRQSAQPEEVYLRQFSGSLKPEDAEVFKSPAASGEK
row,SMILES,IC50 [µM]
1,"C[C@@H]1CN(c2ncccc2Cl)CCN1C(=O)Nc1ccc(C(C#N)c2ccccc2)cc1 (stereo partly drawn) [Compound 120, (2R)-4-(3-chloropyridin-2-yl)-N-[4-[cyano(phenyl)methyl]phenyl]-2-methylpiperazine-1-carboxamide]",< 1
2,"Cc1cc(NC(=O)N2CCN(c3ncccc3Cl)C[C@H]2C)ccc1C(F)(F)F [Compound 121, (2R)-4-(3-chloropyridin-2-yl)-2-methyl-N-[3-methyl-4-(trifluoromethyl)phenyl]piperazine-1-carboxamide]",< 1
3,"Cc1cc(NC(=O)N2CCN(c3ncccc3F)C[C@H]2C)ccc1C(F)(F)F [Compound 122, (2R)-4-(3-fluoropyridin-2-yl)-2-methyl-N-[3-methyl-4-(trifluoromethyl)phenyl]piperazine-1-carboxamide]",< 1
4,"C[C@@H]1CN(c2ncccc2N(S(C)(=O)=O)S(C)(=O)=O)CCN1C(=O)Nc1ccc(C(C)(C)C)cc1 [Compound 123, (2R)-4-{3-[bis(methylsulfonyl)amino]pyridin-2-yl}-N-(4-tert-butylphenyl)-2-methylpiperazine-1-carboxamide]",< 1
5,"Cc1cc(NC(=O)N2CCN(c3ncccc3C(F)(F)F)C[C@H]2C)ccc1C(F)(F)F [Compound 124, (2R)-2-methyl-N-[3-methyl-4-(trifluoromethyl)phenyl]-4-[3-(trifluoromethyl)pyridin-2-yl]piperazine-1-carboxamide]",< 1
6,"C=C(c1ccc(NC(=O)N2CCN(c3ncccc3Cl)C[C@H]2C)cc1)C(F)(F)F [Compound 125, (2R)-4-(3-chloropyridin-2-yl)-2-methyl-N-{4-[1-(trifluoromethyl)vinyl]phenyl]piperazine-1-carboxamide]",< 1
7,"C=C(c1ccc(NC(=O)N2CCN(c3ncccc3C(F)(F)F)C[C@H]2C)cc1)C(F)(F)F [Compound 126, (2R)-2-methyl-4-[3-(trifluoromethyl)pyridin-2-yl]-N-{4-[1-(trifluoromethyl)vinyl]phenyl}piperazine-1-carboxamide]",< 1
8,"C=C(c1ccc(NC(=O)N2CCN(c3ncccc3F)C[C@H]2C)cc1)C(F)(F)F [Compound 127, (2R)-4-(3-fluoropyridin-2-yl)-2-methyl-N-{4-[1-(trifluoromethyl)vinyl]phenyl}piperazine-1-carboxamide]",< 1
9,"CCC(C)c1ccc(NC(=O)N2CCN(c3ncccc3F)C[C@H]2C)cc1 (stereo partly drawn) [Compound 128, (2R)-N-(4-sec-butylphenyl)-4-(3-fluoropyridin-2-yl)-2-methylpiperazine-1-carboxamide]",< 1
10,"CC(c1ccc(NC(=O)N2CCN(c3ncccc3C(F)(F)F)C[C@H]2C)cc1)C(F)(F)F (stereo partly drawn) [Compound 129, (2R)-2-methyl-N-[4-(2,2,2-trifluoro-1-methylethyl)phenyl]-4-[3-(trifluoromethyl)pyridin-2-yl]piperazine-1-carboxamide]",< 1
11,"CC(c1ccc(NC(=O)N2CCN(c3ncccc3F)C[C@H]2C)cc1)C(F)(F)F (stereo partly drawn) [Compound 130, (2R)-4-(3-fluoropyridin-2-yl)-2-methyl-N-[4-(2,2,2-trifluoro-1-methylethyl)phenyl]piperazine-1-carboxamide]",< 1
12,"C[C@@H]1CN(c2ncc([N+](=O)[O-])cc2Cl)CCN1C(=O)Nc1ccc(C(F)(F)F)cc1 [Compound 131, (2R)-4-(3-chloro-5-nitrpyridin-2-yl)-2-methyl-N-[4-(trifluoromethyl)phenyl]piperazine-1-carboxamide]",< 1
13,"C[C@@H]1CN(c2ncc(N)cc2Cl)CCN1C(=O)Nc1ccc(C(F)(F)F)cc1 [Compound 132, (2R)-4-(5-amino-3-chloropyridin-2-yl)-2-methyl-N-[4-(trifluoromethyl)phenyl]piperazine-1-carboxamide]",< 1
14,"C[C@@H]1CN(c2ncccc2S(N)(=O)=O)CCN1C(=O)Nc1ccc(C(C)(C)C)cc1 [Compound 139, (2R)-4-[3-(aminosulfonyl)pyridin-2-yl]-N-(4-tert-butylphenyl)-2-methylpiperazine-1-carboxamide]",< 1
15,"C[C@@H]1CN(c2ncccc2Cl)CCN1C(=O)Nc1ccc(C(=O)c2ccccc2)cc1 [Compound 140, (2R)-N-(4-benzoylphenyl)-4-(3-chloropyridin-2-yl)-2-methylpiperazine-1-carboxamide]",< 1
16,"C[C@@H]1CN(c2ncccc2Cl)CCN1C(=O)Nc1ccc(I)cc1 [Compound 141, (2R)-4-(3-chloropyridin-2-yl)-N-(4-iodophenyl)-2-methylipierazine-1-carboxamide]",< 1
17,"C[C@@H]1CN(c2ncccc2Cl)CCN1C(=O)Nc1ccc2c(c1)Cc1ccccc1-2 [Compound 142, (2R)-4-(3-chloropyridin-2-yl)-N-(9H-flouren-2-yl)-2-methylpiperazine-1-carboxamide]",< 1

row,SMILES,IC50 [µM]
1,"C[C@@H]1CN(c2ncccc2C(F)(F)F)CCN1C(=O)Nc1ccc2c(c1)Cc1ccccc1-2 [Compound 143, (2R)-N-(9H-fluoren-2-yl)-2-methyl-4-[3-(trifluoromethyl)pyridin-2-yl]piperazine-1-carboxamide]",< 1
2,"C[C@@H]1CN(c2ncccc2Cl)CCN1C(=O)Nc1ccc(C(C(F)(F)F)(C(F)(F)F)C(F)(F)F)cc1 [Compound 148, *2R)-4-(3-chloropyridin-2-yl)-2-methyl_n_{4-[2,2,2-trifluoro-1,1-bis(trifluoromethyl)-ethyl]phenyl}piperazine-1-carboxamide]",< 1
3,"C[C@@H]1CN(c2ncccc2C(F)(F)F)CCN1C(=O)Nc1ccc(C(C(F)(F)F)(C(F)(F)F)C(F)(F)F)cc1 [Compound 149, (2R)-2-methyl-N-{4-[2,2,2-trifluoro-1,1-bis(trifluoromethyl)-ethyl]phenyl}-4-[3-(trifluoromethyl)pyridin-2-yl]piperazine-1-carboxamide]",< 1
4,"C[C@@H]1CN(c2ncccc2Cl)CCN1C(=O)Nc1cccc(I)c1 [Compound 150, (2R)-4-(3-chloropyridin-2-yl)-N-(3-iodophenyl)-2-methylpiperazine-1-carboxamide]",< 1
5,"C[C@@H]1CN(c2ncccc2F)CCN1C(=O)Nc1cccc(I)c1 [Compound 151, (2R)-4-(3-fluoropyridin-2-yl)-N-(3-iodophenyl)-2-methylpiperazine-1-carboxamide]",< 1
6,"CCCCc1ccc(NC(=O)N2CCN(c3ncccc3Cl)C[C@H]2C)cc1 [Compound 152, (2R)-N-(4-butylphenyl)-4-(3-chloropyridin-2-yl)-2-methylpiperazine-1-carboxamide]",< 1
7,"O=C(Nc1ccc(C(F)(F)F)cc1)N1CCN(c2ncccc2C(F)(F)F)CC1CF (stereo not shown) [Compound 153, 2-(fluoromethyl)-N-[4-(trifluoromethyl)phenyl]-4-[3-(trifluoromethyl)pyridin-2-yl]piperazine-1-carboxamide]",< 1
8,"Cc1ccc(NC(=O)N2CCN(c3ncccc3C(F)(F)F)C[C@H]2C)cc1C(F)(F)F [Compound 155, (2R)-2-methyl-N-[4-methyl-3-(trifluoromethyl)phenyl]-4-[3-(trifluoromethyl)pyridin-2-yl]piperazine-1-carboxamide]",< 1
9,"C[C@@H]1CN(c2ncccc2Cl)CCN1C(=O)Nc1ccc(Br)c(C(F)(F)F)c1 [Compound 156, (2R)-N-[4-bromo-3-(trifluoromethyl)phenyl]-4-(3-chloropyridin-2-yl)-2-methylpiperazine-1-carboxamide]",< 1
10,"C[C@@H]1CN(c2ncccc2C(F)(F)F)CCN1C(=O)Nc1ccc(Br)c(C(F)(F)F)c1 [Compound 157, (2R)-N-[4-bromo-3-(trifluoromethyl)phenyl]-2-methyl-4-[3-(trifluoromethyl)pyridin-2-yl]piperazine-1-carboxamide]",< 1
11,"C[C@@H]1CN(c2ncccc2Cl)CCN1C(=O)Nc1ccc(Cl)c(C(F)(F)F)c1 [Compound 158, (2R)-4-(3-chloropyridin-2-yl)-N-[4-chloro-3-(trifluoromethyl)phenyl]-2-methylpiperazine-1-carboxamide]",< 1
12,"C[C@@H]1CN(c2ncccc2Cl)CCN1C(=O)Nc1ccc(F)c(C(F)(F)F)c1 [Compound 159, (2R)-4-(3-chlorpyridin-2-yl)-N-[4-fluoro-3-(trifluoromethyl)phenyl]-2-methylpiperazine-1-carboxamide]",< 1
13,"C[C@@H]1CN(c2ncccc2C(F)(F)F)CCN1C(=O)Nc1ccc(Cl)c(C(F)(F)F)c1 [Compound 160, (2R)-N-[4-chloro-3-(trifluoromethyl)phenyl]-2-methyl-4-[3-(trifluoromethyl)pyridin-2-yl]piperazine-1-carboxamide]",< 1
14,"C[C@@H]1CN(c2ncccc2C(F)(F)F)CCN1C(=O)Nc1ccc(F)c(C(F)(F)F)c1 [Compound 161, (2R)-N-[4-fluoro-3-(trifluoromethyl)phenyl]-2-methyl-4-[3-(trifluoromethyl)pyridin-2-yl]piperazine-1-carboxamide]",< 1
15,"C[C@@H]1CN(c2ncccc2Cl)CCN1C(=O)Nc1ccc(C(F)(C(F)(F)F)C(F)(F)F)cc1 [Compound 162, (2R)-4-(3-chloropyridin-2-yl)-2-methyl-N-{4-[1,2,2,2-tetrafluoro-1-(trifluoromethyl)ethyl]phenyl}piperazine-1-carboxamide]",< 1
16,"C[C@@H]1CN(c2ncccc2C(F)(F)F)CCN1C(=O)Nc1ccc(C(F)(C(F)(F)F)C(F)(F)F)cc1 [Compound 163, (2R)-2-methyl-N-{4-[1,2,2,2-tetrafluoro-1-(trifluoromethyl)ethyl]phenyl}-4-[3-(trifluoromethyl)pyridin-2-yl]piperazine-1-carboxamide]",< 1

# Same assay, conditions: Table VI, read-out: EC50 (the source's name)
row,SMILES,IC50 [µM]
1,"C[C@@H]1CN(c2nccnc2Cl)CCN1C(=O)Nc1ccc(C(F)(C(F)(F)F)C(F)(F)F)cc1 [Compound 164, (2R)-4-(3-chloropyrazin-2-yl)-2-methyl-N-{4-[1,2,2,2-tetrafluoro-1-(trifluoromethyl)ethyl]phenyl}piperazine-1-carboxamide]",< 1
